Experiments:
[1] = tested on: hexokinase; assay: Hexokinase activity in whole-cell lysates, RCC4/VHL; type: cell-based
Source text: We then examined whether this decrease in glycolysis in response to STF-31 was due to a decrease in glucose uptake or whether STF-31 inhibited a particular glycolytic enzyme. To test this, we measured glucose uptake using 2-deoxy-D-[^3H] glucose, a non-hydrolyzable, radioactive glucose analog. STF-31 impaired glucose uptake in RCC4 and 786-O cells but not in the matched isogenic cells expressing wild-type VHL (FIGS. 2B, 6A, and 6C). RCC4/VHL cells had lower baseline levels of glucose uptake compared to RCC4 cells and were unaffected by treatment with STF-31. […] Because the phosphorylation of glucose to glucose-6-phosphate is important for preventing glucose efflux from the cell, we asked whether STF-31 might function by inhibiting the phosphorylation of glucose by hexokinase. […]
Cell Culture and Reagents. […] GLUT1 was detected with anti-GLUT1 antibody from NeoMarkers/LabVision/Fisher. For immunofluorescent studies, GLUT1, GLUT2, and GLUT3 antibodies were purchased from R&D. Pyruvate/lactate levels and hexokinase activity were both measured by fluorometric assay (BioVision and Sigma-Aldrich, respectively). ATP levels were measured by bioluminescence assay (ATP Determination Kit from Molecular Probes/Invitrogen). […]

[2] = tested on: SN12C shVHL; assay: RCC panel sensitivity (Table 2); type: cell-based; conditions: VHL silenced
[3] = biological target: T1, IRAK1 (Homo sapiens, UniProt P51617); assay: Kinase Profiler; type: biochemical; conditions: STF-31 10 μM
T1 construct: purchased Millipore Kinase Profiler
Protocol: (§1) Cell Culture and Reagents. All cells were grown in DMEM+10% FCS. ACHN and ACHN shVHL were a kind gift from George V. Thomas (UCLA). HIF overexpressing clones were described previously (Sutphin et al., Cancer Res, 67:5896-5905 (2007)). Transfection of RNA oligos were performed with DnarmaFECT Reagent 1 (Dharmcon), according to manufacturer's directions. ON-TARGETplus SMART pools against HIF-1 R/ARNT were purchased from Dharmacon. Inducible shRNAmir to GLUT1 was purchased from Open Biosystems. GLUT1 was detected with anti-GLUT1 antibody from NeoMarkers/LabVision/Fisher. For immunofluorescent studies, GLUT1, GLUT2, and GLUT3 antibodies were purchased from R&D. Pyruvate/lactate levels and hexokinase activity were both measured by fluorometric assay (BioVision and Sigma-Aldrich, respectively). ATP levels were measured by bioluminescence assay (ATP Determination Kit from Molecular Probes/Invitrogen). In vitro kinase activities were performed by Millipore Kinase Profiler.

[4] = biological target: T2, MKK4 (Mus musculus, UniProt P47809); assay: Kinase Profiler; type: biochemical; conditions: STF-31 10 μM
T2 construct: purchased Millipore Kinase Profiler
Protocol: as §1

[5] = biological target: T3, Aurora-A (Homo sapiens, UniProt O14965); assay: Kinase Profiler; type: biochemical; conditions: STF-31 10 μM
T3 construct: purchased Millipore (Kinase Profiler service)
Protocol: as §1

[6] = biological target: T4, IR (Homo sapiens, UniProt P06213); assay: Kinase Profiler; type: biochemical; conditions: STF-31 10 μM
T4 construct: purchased Millipore Kinase Profiler
Protocol: as §1

[7] = biological target: T5, Rsk1 (Homo sapiens, UniProt Q15418); assay: Kinase Profiler; type: biochemical; conditions: STF-31 10 μM
T5 construct: purchased Millipore (Kinase Profiler service)
Protocol: as §1

[8] = biological target: T6, IGF-1R (Homo sapiens, UniProt P08069); assay: Kinase Profiler; type: biochemical; conditions: STF-31 10 μM
T6 construct: purchased Millipore Kinase Profiler
Protocol: as §1

[9] = biological target: T7, EphA1 (Homo sapiens, UniProt P21709); assay: Kinase Profiler; type: biochemical; conditions: STF-31 10 μM
T7 construct: purchased Millipore (Kinase Profiler service)
Protocol: as §1

[10] = biological target: T8, ROCK-I (Homo sapiens, UniProt Q13464); assay: Kinase Profiler; type: biochemical; conditions: STF-31 10 μM
T8 construct: purchased Millipore (Kinase Profiler service)
Protocol: as §1

[11] = biological target: T9, Abl (Homo sapiens, UniProt P00519); assay: Kinase Profiler; type: biochemical; conditions: STF-31 10 μM
T9 construct: purchased Millipore (Kinase Profiler service)
Protocol: as §1

[12] = biological target: T10, Flt3 (Homo sapiens, UniProt P36888); assay: Kinase Profiler; type: biochemical; conditions: STF-31 10 μM
T10 construct: purchased Millipore Kinase Profiler
Protocol: as §1

[13] = biological target: T11, Plk3 (Homo sapiens, UniProt Q9H4B4); assay: Kinase Profiler; type: biochemical; conditions: STF-31 10 μM
T11 construct: purchased Millipore (Kinase Profiler service)
Protocol: as §1

[14] = biological target: T12, Tie2 (Homo sapiens, UniProt Q02763); assay: Kinase Profiler; type: biochemical; conditions: STF-31 10 μM
T12 construct: purchased Millipore (Kinase Profiler service)
Protocol: as §1

[15] = biological target: T13, DAPK1 (Homo sapiens, UniProt P53355); assay: Kinase Profiler; type: biochemical; conditions: STF-31 10 μM
T13 construct: purchased Millipore (Kinase Profiler service)
Protocol: as §1

[16] = biological target: AMPK; assay: Kinase Profiler; type: biochemical; conditions: STF-31 10 μM
Protocol: as §1

[17] = biological target: T14, CSK (Homo sapiens, UniProt P41240); assay: Kinase Profiler; type: biochemical; conditions: STF-31 10 μM
T14 construct: purchased Millipore (Kinase Profiler service)
Protocol: as §1

[18] = biological target: T15, DYRK2 (Homo sapiens, UniProt Q92630); assay: Kinase Profiler; type: biochemical; conditions: STF-31 10 μM
T15 construct: purchased Millipore (Kinase Profiler service)
Protocol: as §1

[19] = biological target: T16, Pim-2 (Homo sapiens, UniProt Q9P1W9); assay: Kinase Profiler; type: biochemical; conditions: STF-31 10 μM
T16 construct: purchased Millipore Kinase Profiler
Protocol: as §1

[20] = biological target: T17, IKKα (Homo sapiens, UniProt O15111); assay: Kinase Profiler; type: biochemical; conditions: STF-31 10 μM
T17 construct: purchased Millipore Kinase Profiler
Protocol: as §1

[21] = biological target: PI3K; assay: Kinase Profiler; type: biochemical; conditions: STF-31 10 μM
Protocol: as §1

[22] = biological target: T18, cSRC (Homo sapiens, UniProt P12931); assay: Kinase Profiler; type: biochemical; conditions: STF-31 10 μM
T18 construct: purchased Millipore (Kinase Profiler service)
Protocol: as §1

[23] = biological target: T19, FGFR1 (Homo sapiens, UniProt P11362); assay: Kinase Profiler; type: biochemical; conditions: STF-31 10 μM
T19 construct: purchased Millipore Kinase Profiler
Protocol: as §1

[24] = biological target: T20, Met (Homo sapiens, UniProt P08581); assay: Kinase Profiler; type: biochemical; conditions: STF-31 10 μM
T20 construct: purchased Millipore Kinase Profiler
Protocol: as §1

[25] = biological target: T21, Fyn (Homo sapiens, UniProt P06241); assay: Kinase Profiler; type: biochemical; conditions: STF-31 10 μM
T21 construct: purchased Millipore Kinase Profiler
Protocol: as §1

[26] = biological target: T22, SAPK2a (Homo sapiens, UniProt Q16539); assay: Kinase Profiler; type: biochemical; conditions: STF-31 10 μM
T22 construct: purchased Millipore (Kinase Profiler service)
Protocol: as §1

[27] = biological target: T23, cKit(D816H) (Homo sapiens, UniProt P10721, D816H); assay: Kinase Profiler; type: biochemical; conditions: STF-31 10 μM
T23 construct: purchased Millipore (Kinase Profiler service)
Protocol: as §1

[28] = biological target: T24, TrkA (Homo sapiens, UniProt P04629); assay: Kinase Profiler; type: biochemical; conditions: STF-31 10 μM
T24 construct: purchased Millipore (Kinase Profiler service)
Protocol: as §1

T5 sequence (Q15418 whole entry, species assumed): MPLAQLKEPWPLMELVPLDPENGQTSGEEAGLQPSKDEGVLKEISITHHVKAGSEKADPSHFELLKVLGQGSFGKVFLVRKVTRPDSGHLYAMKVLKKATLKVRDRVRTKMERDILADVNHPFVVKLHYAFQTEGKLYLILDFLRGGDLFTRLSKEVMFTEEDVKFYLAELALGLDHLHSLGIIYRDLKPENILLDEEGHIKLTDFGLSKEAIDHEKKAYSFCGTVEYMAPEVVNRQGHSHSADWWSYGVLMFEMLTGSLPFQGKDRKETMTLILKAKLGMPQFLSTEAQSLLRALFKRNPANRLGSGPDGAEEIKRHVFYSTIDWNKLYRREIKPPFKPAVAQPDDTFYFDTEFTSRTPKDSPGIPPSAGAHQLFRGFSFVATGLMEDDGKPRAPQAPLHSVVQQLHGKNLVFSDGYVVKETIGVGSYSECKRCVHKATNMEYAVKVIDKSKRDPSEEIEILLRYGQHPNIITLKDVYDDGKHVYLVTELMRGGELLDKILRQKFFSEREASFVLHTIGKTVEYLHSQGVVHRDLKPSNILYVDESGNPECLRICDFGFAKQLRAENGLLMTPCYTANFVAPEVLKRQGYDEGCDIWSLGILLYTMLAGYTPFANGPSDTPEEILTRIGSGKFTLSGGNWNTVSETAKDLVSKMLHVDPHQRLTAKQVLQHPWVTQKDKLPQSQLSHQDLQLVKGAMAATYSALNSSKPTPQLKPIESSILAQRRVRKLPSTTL
T7 sequence (P21709 26-976, species assumed): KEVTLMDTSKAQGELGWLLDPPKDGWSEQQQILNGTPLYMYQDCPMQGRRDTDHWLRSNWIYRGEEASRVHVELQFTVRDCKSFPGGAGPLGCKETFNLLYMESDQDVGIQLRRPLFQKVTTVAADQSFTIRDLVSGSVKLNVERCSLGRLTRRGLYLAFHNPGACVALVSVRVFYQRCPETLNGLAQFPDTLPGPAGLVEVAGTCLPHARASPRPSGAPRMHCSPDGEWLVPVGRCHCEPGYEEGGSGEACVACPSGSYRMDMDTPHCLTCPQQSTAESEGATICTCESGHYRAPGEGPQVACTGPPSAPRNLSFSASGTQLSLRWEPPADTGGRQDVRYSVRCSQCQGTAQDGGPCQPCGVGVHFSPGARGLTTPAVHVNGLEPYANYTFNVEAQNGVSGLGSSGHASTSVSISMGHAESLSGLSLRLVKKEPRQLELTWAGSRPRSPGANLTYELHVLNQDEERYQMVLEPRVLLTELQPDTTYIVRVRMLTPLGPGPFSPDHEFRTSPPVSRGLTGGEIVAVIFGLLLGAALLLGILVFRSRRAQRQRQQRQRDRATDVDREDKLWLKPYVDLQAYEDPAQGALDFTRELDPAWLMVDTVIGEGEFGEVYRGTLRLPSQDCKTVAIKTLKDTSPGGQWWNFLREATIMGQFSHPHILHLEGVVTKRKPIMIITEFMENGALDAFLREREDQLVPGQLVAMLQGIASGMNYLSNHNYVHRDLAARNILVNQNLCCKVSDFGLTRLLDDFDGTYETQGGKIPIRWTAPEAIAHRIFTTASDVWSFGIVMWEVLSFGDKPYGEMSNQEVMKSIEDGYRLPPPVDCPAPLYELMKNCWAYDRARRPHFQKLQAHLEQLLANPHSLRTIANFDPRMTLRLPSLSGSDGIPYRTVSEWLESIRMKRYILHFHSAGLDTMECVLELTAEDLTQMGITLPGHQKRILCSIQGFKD
T10 sequence (P36888 27-993, species assumed): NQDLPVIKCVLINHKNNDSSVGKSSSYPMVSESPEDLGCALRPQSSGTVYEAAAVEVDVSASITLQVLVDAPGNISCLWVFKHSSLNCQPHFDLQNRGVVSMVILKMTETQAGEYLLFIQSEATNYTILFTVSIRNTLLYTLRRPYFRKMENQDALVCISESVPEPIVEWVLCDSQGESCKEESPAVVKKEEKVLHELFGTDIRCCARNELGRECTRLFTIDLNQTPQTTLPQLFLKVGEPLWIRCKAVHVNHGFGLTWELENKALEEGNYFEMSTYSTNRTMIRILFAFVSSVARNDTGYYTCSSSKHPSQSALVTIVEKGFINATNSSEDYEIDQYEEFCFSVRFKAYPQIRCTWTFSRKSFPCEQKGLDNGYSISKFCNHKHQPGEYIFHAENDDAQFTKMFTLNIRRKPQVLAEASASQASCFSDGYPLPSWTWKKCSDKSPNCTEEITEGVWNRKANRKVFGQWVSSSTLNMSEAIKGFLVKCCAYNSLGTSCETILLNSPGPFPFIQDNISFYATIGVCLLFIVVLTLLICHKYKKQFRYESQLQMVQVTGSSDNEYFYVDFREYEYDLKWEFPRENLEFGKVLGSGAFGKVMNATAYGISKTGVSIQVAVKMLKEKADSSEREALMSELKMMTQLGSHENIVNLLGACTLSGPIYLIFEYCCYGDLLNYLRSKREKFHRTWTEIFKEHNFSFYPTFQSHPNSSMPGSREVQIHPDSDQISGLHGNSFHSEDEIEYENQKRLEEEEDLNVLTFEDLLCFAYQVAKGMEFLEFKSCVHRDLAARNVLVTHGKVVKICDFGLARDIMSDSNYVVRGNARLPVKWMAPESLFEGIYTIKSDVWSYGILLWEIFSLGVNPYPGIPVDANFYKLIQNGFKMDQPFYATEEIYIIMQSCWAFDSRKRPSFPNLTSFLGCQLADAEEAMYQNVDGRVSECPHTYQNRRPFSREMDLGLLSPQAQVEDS
T16 sequence (Q9P1W9 whole entry, species assumed): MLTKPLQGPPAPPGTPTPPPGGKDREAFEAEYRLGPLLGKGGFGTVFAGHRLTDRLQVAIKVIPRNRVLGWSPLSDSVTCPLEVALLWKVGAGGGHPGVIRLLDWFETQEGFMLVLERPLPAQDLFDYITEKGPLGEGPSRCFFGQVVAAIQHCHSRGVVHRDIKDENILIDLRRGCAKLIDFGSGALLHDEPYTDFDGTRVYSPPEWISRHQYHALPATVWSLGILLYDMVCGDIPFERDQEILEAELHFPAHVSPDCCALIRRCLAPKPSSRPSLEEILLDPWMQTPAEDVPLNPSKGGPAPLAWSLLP
T21 sequence (P06241 whole entry, species assumed): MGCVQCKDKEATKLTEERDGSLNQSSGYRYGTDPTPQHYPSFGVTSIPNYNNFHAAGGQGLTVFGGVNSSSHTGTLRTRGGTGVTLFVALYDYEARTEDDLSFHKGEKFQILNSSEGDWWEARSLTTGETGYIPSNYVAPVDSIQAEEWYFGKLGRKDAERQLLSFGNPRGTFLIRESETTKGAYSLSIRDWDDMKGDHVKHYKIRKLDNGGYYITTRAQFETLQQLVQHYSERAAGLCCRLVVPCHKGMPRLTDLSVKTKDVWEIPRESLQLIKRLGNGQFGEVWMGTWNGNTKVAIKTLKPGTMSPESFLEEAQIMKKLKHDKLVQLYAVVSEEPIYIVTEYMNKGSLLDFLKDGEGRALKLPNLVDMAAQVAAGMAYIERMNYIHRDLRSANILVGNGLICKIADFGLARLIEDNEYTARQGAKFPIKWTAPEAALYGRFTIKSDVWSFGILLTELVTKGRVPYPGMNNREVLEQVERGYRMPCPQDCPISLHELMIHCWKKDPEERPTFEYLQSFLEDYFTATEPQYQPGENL
T12 sequence (Q02763 23-1124, species assumed): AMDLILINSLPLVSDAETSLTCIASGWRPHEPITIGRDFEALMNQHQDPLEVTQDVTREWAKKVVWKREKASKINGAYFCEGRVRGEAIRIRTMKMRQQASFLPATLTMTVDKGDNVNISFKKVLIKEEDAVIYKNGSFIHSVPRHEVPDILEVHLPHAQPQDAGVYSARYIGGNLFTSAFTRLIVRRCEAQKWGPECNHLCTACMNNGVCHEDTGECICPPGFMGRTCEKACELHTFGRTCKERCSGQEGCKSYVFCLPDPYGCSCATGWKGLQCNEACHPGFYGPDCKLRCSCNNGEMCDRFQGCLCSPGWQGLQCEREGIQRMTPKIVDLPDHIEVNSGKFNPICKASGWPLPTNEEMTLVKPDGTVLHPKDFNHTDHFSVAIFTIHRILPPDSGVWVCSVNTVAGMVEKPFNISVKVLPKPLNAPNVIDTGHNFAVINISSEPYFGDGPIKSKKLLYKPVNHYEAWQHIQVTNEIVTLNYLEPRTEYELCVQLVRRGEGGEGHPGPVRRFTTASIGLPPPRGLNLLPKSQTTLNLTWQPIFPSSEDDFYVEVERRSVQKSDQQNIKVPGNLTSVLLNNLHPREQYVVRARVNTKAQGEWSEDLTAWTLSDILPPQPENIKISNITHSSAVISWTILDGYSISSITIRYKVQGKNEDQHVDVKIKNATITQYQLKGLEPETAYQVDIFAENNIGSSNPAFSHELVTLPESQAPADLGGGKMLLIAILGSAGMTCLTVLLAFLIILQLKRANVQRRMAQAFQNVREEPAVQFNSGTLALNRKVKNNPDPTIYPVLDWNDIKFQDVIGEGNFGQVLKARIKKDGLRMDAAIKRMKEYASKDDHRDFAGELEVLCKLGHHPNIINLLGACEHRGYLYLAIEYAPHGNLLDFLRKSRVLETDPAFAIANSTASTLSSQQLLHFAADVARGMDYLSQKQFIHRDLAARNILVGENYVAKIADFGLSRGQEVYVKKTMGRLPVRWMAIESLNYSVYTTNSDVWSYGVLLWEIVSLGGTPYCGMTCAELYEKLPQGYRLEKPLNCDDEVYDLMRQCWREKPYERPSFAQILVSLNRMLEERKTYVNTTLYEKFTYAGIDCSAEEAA
T2 sequence (P47809 2-397 limits assumed): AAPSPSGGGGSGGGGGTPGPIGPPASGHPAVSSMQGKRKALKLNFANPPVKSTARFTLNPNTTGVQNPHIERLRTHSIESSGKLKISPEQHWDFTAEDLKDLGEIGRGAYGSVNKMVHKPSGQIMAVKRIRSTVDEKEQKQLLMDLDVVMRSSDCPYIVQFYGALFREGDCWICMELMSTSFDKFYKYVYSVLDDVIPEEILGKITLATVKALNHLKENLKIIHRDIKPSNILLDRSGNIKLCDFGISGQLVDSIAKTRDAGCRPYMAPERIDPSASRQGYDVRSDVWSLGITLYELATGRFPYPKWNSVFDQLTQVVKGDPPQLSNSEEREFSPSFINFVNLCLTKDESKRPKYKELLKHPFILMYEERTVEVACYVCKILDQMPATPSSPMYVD

CC(C)(C)c1ccc(S(=O)(=O)NCc2ccc(C(=O)Nc3cccnc3)cc2)cc1 [STF-31]
hexokinase activity of RCC4/VHL cells [1]: unchanged
3-series sensitivity (sensitivity to STF-31) [2]: Yes
Kinase response to STF-31 [3]: 105
Kinase response to STF-31 [4]: 128
Kinase response to STF-31 [5]: 108
Kinase response to STF-31 [6]: 121
Kinase response to STF-31 [7]: 120
Kinase response to STF-31 [8]: 108
Kinase response to STF-31 [9]: 102
Kinase response to STF-31 [10]: 74
Kinase response to STF-31 [11]: 108
Kinase response to STF-31 [12]: 111
Kinase response to STF-31 [13]: 104
Kinase response to STF-31 [14]: 111
Kinase response to STF-31 [15]: 92
Kinase response to STF-31 [16]: 92
Kinase response to STF-31 [17]: 99
Kinase response to STF-31 [18]: 94
Kinase response to STF-31 [19]: 112
Kinase response to STF-31 [20]: 102
Kinase response to STF-31 [21]: 97
Kinase response to STF-31 [22]: 104
Kinase response to STF-31 [23]: 107
Kinase response to STF-31 [24]: 105
Kinase response to STF-31 [25]: 91
Kinase response to STF-31 [26]: 127
Kinase response to STF-31 [27]: 99
Kinase response to STF-31 [28]: 124
